Active and inactive are the calls of the source.
What was measured:
[1] = molecular target: T1, Polyadenylate-binding protein 1 (Homo sapiens, UniProt P11940); assay: MLLE domain peptide-binding blockers, IC50 – biochemical, fluorescence polarization, FITC-PAM2 peptide, dose response (AID 602259); assay type: functional; conditions: read-out: IC50_Mean
[2] = molecular target: T1, Polyadenylate-binding protein 1; assay: MLLE binding blockers, Cy5 peptide tracer – biochemical, fluorescence polarization, Cy5-PAM2 peptide, secondary, miRNA deadenylation inhibitor project, dose response (AID 602260); assay type: functional; conditions: read-out: IC50_Mean
[3] = intracellular Trypanosoma cruzi inhibitors in host cells – cell-based, plate reader, cherry-pick samples, set 3, dose response (AID 651818); assay type: functional;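 further: compounds incubated with infected cells for about four days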
[4] = system: Streptococcus; assay: GAS UMAA2166 growth inhibition – luminescence, BacTiterGlo, counter-screen for streptokinase expression inhibitor project, dose response (AID 1915); assay type: functional, organism-based;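 further: potency for reduction of bacterial viability or growth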
[5] = molecular target: T2, Streptokinase A (Streptococcus pyogenes serotype M1, UniProt P10520); assay: viability-normalized secreted streptokinase activity reduction – plasminogen activation absorbance, OD405, dose response (AID 1914); assay type: functional, Streptococcus pyogenes M1 GAS;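 further: secreted streptokinase activity via plasminogen activation per viability signal from cell pellet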
T2 sequence (P10520 whole entry): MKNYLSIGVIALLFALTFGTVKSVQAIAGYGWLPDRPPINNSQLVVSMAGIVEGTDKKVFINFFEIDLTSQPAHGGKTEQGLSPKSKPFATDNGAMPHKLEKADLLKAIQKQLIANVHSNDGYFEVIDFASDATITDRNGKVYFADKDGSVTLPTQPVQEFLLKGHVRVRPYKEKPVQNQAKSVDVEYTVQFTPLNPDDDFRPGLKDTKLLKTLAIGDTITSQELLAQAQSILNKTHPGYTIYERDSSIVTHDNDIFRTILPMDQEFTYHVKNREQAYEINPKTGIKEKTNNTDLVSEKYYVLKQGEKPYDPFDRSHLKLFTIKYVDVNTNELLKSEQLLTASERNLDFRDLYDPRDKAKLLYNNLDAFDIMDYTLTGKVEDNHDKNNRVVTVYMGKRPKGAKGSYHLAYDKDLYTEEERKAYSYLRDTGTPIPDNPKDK

[6] = system: Streptococcus sp. 'group A'; assay: Streptococcus pyogenes SK(-)GAS viability under kanamycin – luminescence, BacTiterGlo, confirmation, counter-screen for streptokinase expression inhibitor project, dose response (AID 1900); assay type: functional, organism-based
[7] = molecular target: Voltage-dependent T-type calcium channel subunit alpha-1H (Homo sapiens, UniProt O95180); assay type: functional;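 further: channel activity triggered by adding a high calcium stimulation buffer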
Chain of Voltage-dependent T-type calcium channel subunit alpha-1H (O95180 whole entry): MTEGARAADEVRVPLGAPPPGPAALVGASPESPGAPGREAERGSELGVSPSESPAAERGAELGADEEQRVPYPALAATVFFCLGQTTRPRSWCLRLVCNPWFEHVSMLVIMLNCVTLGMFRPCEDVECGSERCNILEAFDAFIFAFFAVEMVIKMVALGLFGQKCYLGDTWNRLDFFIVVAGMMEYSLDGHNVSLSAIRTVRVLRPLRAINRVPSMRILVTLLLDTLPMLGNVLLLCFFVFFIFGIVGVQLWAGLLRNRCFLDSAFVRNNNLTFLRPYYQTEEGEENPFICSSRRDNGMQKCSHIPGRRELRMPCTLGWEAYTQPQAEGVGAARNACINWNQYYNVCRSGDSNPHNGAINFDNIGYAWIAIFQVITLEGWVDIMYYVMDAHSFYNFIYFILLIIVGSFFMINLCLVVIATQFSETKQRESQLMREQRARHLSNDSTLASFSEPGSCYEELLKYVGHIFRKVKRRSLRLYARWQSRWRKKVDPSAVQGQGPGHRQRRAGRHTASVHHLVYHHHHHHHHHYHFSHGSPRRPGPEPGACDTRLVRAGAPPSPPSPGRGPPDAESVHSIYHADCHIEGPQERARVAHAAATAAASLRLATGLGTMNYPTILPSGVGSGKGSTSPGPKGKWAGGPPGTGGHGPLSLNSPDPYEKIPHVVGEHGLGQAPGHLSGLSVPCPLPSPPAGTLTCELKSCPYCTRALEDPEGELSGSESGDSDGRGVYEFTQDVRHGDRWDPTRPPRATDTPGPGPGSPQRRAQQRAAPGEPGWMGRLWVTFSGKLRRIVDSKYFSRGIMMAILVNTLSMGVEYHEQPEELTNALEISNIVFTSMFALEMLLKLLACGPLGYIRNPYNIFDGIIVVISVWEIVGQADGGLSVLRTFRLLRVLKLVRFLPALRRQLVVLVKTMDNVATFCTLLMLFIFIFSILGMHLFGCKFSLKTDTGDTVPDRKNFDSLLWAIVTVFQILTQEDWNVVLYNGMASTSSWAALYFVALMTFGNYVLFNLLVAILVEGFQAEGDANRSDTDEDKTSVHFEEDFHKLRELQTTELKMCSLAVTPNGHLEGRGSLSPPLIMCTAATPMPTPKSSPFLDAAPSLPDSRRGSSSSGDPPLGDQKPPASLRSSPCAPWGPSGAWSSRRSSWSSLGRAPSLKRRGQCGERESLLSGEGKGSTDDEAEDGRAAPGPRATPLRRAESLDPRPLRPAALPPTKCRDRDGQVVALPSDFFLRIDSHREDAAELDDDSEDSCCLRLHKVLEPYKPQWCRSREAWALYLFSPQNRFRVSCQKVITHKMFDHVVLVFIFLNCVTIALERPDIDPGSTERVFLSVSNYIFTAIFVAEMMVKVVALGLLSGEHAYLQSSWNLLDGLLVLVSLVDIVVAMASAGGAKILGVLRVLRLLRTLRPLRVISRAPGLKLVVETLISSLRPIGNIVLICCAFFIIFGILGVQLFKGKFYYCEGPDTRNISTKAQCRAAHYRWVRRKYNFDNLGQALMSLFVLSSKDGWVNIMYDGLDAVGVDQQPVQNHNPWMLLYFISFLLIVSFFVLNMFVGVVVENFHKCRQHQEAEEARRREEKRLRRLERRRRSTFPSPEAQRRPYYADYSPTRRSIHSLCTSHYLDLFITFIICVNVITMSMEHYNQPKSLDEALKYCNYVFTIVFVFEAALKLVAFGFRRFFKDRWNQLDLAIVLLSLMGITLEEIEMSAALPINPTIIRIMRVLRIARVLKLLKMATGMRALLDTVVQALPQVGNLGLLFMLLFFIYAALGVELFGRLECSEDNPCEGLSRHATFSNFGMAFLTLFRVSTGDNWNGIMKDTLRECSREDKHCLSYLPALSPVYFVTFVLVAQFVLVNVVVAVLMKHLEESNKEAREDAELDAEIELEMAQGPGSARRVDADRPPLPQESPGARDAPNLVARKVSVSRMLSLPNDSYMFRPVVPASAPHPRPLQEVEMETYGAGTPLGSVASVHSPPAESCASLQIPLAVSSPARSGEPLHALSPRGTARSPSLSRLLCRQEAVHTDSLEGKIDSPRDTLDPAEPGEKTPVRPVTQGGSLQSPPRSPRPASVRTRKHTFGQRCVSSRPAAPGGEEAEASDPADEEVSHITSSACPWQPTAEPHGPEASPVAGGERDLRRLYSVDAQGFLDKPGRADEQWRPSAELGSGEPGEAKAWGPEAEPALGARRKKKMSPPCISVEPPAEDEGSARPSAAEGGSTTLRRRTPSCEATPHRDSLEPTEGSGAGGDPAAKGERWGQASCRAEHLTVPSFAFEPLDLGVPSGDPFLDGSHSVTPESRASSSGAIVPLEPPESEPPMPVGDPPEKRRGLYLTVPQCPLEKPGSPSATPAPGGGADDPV

[8] = molecular target: Cytochrome P450 2C9 (Homo sapiens, UniProt P11712)
Chain of Cytochrome P450 2C9 (P11712 whole entry): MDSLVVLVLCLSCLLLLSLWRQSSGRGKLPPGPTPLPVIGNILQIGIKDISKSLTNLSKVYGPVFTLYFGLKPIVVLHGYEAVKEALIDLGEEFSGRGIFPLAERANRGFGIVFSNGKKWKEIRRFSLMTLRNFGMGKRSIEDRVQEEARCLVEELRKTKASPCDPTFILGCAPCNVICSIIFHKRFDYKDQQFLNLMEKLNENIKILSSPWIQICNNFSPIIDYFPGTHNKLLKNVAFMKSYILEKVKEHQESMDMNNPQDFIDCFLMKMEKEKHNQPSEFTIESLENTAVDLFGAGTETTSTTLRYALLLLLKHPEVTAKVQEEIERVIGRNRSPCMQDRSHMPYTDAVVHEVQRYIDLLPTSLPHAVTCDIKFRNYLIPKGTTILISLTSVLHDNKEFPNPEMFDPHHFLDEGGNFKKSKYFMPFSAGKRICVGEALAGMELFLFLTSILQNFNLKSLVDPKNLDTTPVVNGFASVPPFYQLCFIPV

[9] = molecular target: Cytochrome P450 2D6 (Homo sapiens, UniProt P10635);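 further: CYP2D6 member of a cytochrome P450 panel assay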
Chain of Cytochrome P450 2D6 (P10635 whole entry): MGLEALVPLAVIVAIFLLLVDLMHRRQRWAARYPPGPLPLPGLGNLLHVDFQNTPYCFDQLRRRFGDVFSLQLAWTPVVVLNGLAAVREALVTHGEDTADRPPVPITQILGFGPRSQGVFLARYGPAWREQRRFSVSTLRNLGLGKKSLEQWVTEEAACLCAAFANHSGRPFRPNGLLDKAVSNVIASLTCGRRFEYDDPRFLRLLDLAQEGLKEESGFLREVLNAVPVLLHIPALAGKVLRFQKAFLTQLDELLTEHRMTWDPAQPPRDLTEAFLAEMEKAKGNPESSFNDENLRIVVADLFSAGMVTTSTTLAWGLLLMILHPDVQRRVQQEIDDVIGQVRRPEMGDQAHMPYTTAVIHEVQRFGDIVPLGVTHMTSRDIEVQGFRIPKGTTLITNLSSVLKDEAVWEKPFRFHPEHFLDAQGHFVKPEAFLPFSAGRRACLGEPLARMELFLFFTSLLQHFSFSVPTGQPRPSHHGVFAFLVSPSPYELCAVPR

[10] = molecular target: Cytochrome P450 3A4 (Homo sapiens, UniProt P08684);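 further: CYP3A4 tested as one member of a cytochrome P450 panel screen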
Chain of Cytochrome P450 3A4 (P08684 whole entry): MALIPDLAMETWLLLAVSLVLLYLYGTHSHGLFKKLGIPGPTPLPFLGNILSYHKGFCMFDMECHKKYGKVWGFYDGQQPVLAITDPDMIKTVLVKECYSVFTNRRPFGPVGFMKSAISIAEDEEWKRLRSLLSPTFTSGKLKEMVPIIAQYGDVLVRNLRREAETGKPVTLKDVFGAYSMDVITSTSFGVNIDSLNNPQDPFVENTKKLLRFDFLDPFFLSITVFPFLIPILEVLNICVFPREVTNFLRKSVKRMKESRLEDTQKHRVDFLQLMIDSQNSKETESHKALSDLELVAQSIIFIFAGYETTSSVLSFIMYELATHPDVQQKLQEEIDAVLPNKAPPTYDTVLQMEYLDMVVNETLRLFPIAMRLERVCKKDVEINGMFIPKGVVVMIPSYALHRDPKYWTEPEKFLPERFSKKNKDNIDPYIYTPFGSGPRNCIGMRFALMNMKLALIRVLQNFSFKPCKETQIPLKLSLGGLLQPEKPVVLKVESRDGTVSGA

[11] = molecular target: T3, Calpain-2 catalytic subunit (Sus scrofa, UniProt P43367); assay: m-calpain protease blockers, concentration series – biochemical, fluorogenic peptide substrate, dose response (AID 1420); assay type: functional
T3 sequence (P43367 whole entry): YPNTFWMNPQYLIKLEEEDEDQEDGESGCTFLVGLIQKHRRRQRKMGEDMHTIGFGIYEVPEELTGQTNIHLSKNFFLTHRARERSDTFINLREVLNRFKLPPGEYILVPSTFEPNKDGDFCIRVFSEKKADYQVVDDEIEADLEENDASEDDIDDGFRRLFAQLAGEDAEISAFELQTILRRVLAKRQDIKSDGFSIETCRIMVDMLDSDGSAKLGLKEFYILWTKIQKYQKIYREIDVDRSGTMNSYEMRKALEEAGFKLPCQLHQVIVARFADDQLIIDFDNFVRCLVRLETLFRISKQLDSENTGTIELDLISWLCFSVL

[12] = blockers of bursicon-stimulated LGR2 cAMP reporter – cell-based, HEK293, CRE-luciferase reporter, cherry pick, set 2, dose response (AID 743343); assay type: functional;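 further: transfected cells were stimulated with diluted bursicon conditioned medium after compound addition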
[13] = blockade of melanocortin 4 receptor signaling – cell-based, plate reader, cherry pick, counter-screen for LGR2 antagonist project, dose response (AID 743444); assay type: functional;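 further: transfected HEK 293 cells stimulated with alpha-MSH peptide; potency of inhibitors of the alpha-MSH evoked signal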
[14] = molecular target: T4, Rac GTPase-activating protein 1 (Homo sapiens, UniProt Q9H0H5); assay: blockers of MgcRacGAP-driven Rac1 GTP hydrolysis – biochemical, ADP Hunter fluorescence, primary and confirmatory, confirmation (AID 624330); assay type: functional
T4 sequence (Q9H0H5 whole entry): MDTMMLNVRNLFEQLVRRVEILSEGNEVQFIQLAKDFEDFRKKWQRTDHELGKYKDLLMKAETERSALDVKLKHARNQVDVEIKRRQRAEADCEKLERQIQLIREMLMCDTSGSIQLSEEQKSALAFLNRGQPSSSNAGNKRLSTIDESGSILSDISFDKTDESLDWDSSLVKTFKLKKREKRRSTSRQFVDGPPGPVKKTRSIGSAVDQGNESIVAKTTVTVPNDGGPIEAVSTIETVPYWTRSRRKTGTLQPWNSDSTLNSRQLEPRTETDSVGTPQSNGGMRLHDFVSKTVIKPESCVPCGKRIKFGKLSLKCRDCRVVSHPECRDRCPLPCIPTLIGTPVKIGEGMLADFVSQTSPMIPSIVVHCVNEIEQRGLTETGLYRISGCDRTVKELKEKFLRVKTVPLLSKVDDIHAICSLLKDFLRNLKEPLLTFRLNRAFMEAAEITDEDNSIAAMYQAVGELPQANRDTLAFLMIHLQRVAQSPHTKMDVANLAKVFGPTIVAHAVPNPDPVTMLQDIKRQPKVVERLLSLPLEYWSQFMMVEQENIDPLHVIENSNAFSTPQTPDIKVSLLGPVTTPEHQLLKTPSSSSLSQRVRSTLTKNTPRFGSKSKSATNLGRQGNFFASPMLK

[15] = molecular target: T5, Heat shock factor protein 1 (Mus musculus, UniProt P38532); assay: decrease of HSF1-responsive luciferase luminescence – cell-based, NIH3T3, dose retest, confirmation (AID 2382); assay type: functional;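 further: NIH3T3 fibroblasts with HSF1-driven luciferase reporter stressed by proteasome inhibitor MG132; luminescence from HSF1-driven luciferase expression after 8 hours of MG132 stress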
T5 sequence (P38532 whole entry): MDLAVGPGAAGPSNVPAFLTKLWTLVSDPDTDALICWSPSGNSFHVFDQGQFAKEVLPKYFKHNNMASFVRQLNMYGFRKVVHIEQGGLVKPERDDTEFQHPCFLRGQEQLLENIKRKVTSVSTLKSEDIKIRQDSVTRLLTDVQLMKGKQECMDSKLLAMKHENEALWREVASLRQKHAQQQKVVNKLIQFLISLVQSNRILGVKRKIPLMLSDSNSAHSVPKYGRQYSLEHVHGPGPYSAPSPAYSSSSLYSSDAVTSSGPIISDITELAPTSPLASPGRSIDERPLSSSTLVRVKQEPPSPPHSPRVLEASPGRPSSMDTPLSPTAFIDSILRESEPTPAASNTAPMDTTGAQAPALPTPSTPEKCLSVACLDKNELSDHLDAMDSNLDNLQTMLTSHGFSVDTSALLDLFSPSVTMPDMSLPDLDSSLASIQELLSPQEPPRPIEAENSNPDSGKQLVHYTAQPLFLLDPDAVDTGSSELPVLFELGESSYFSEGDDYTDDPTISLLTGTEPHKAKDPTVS

[16] = molecular target: FAD-linked sulfhydryl oxidase ALR (Homo sapiens, UniProt P55789); assay: ALR-catalysed DTT oxidation blockers – biochemical, H2O2 detection, luminescence, cherry-pick, dose response (AID 493248)
Chain of FAD-linked sulfhydryl oxidase ALR (P55789 whole entry): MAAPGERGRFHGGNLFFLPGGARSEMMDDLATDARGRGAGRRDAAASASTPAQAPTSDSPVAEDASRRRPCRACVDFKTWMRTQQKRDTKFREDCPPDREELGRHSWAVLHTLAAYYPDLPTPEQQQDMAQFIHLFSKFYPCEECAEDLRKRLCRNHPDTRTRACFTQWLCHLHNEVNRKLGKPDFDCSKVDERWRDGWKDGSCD

[17] = Trypanosoma cruzi growth suppression in host cells – NIH3T3 host cells, beta-gal luminescence, confirmation (AID 2044); assay type: functional, cell-based;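 further: intracellular parasites grown in NIH/3T3 mouse fibroblasts as host cells; luminescent beta-galactosidase reporter signal from transgenic T. cruzi replicating inside host cells; inhibitors lower the luminescence signal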
[18] = molecular target: T6, Corticotropin-releasing factor receptor 2/Corticotropin-releasing factor-binding protein (Homo sapiens, UniProt P24387+Q13324); assay: activators of CRF receptor 2 with binding protein – uHTS hits, confirmation (AID 602473); assay type: functional; conditions: read-out: EC50_Mean
T6 sequence (Q13324 whole entry): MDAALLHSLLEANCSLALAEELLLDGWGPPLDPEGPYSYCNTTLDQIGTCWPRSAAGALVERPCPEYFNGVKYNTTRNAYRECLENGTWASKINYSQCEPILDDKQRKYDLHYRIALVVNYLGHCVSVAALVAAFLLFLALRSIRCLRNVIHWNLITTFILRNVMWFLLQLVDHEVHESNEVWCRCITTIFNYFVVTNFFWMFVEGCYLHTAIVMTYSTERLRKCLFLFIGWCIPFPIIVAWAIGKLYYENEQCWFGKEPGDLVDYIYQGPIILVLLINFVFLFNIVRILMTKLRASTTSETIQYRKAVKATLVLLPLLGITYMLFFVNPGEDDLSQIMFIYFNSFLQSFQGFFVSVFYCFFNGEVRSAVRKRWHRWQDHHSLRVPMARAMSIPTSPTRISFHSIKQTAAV
T6 sequence (P24387 whole entry): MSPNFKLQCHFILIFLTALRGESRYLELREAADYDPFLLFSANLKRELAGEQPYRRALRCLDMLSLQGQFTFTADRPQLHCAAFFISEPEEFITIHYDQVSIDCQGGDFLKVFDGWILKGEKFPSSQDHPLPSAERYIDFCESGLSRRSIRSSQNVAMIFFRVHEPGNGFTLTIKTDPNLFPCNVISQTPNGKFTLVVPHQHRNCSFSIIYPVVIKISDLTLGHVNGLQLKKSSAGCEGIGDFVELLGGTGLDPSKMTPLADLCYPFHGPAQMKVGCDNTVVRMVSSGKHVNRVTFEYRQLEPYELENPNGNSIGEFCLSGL

[19] = NIH3T3 cell viability loss – ATP luminescence, mouse fibroblasts, counter-screen, dose response (AID 2010); assay type: functional, cell-based;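 further: cells exposed to compound for about 90 hours before reading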

T1 sequence (P11940 whole entry, the tested form may be a part): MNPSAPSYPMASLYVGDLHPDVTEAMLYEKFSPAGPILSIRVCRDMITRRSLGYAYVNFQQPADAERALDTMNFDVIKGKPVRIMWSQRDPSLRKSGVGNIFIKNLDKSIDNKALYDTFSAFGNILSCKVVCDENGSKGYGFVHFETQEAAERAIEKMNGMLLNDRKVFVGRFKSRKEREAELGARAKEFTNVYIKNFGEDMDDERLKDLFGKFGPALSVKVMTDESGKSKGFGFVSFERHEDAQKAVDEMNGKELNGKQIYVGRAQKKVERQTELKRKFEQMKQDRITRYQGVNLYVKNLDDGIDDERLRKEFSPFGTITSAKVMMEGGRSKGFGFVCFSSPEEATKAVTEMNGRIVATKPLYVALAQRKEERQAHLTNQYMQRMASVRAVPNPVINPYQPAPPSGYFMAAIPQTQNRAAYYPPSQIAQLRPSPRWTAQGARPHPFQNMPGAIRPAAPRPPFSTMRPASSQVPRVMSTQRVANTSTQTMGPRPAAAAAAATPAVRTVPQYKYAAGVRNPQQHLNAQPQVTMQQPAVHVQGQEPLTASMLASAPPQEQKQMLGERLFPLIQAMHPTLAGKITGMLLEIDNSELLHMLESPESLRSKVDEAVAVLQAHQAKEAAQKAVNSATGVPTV

CC1(c2ccc3noc(-c4ccc(F)cc4)c3c2)OCCO1
IC50 [1]: 19.3 µM (active) | IC50 [2]: > 66 µM (inactive)

C[C@@H]1CN([C@H](C)CO)C(=O)c2cccc(NC(=O)Nc3ccccc3)c2O[C@H]1CN(C)Cc1ccc(C(=O)Nc2ccccc2N)cc1
AC50 [3]: 2.02 µM (active)

COc1ccc(NC(=S)N=Nc2c(O)[nH]c3ccccc23)cc1
IC50 [1]: > 66 µM (inactive) | IC50 [2]: > 66 µM (inactive) | EC50 [4]: 14.1 µM (active) | EC50 [5]: > 150 µM (not active) | EC50 [6]: 2.34 µM (active)

C[C@H]1CN([C@@H](C)CO)C(=O)c2cc(NC(=O)Nc3ccc(C(F)(F)F)cc3)ccc2O[C@H]1CN(C)Cc1ccc(Oc2ccccc2)cc1
AC50 [3]: 3.42 µM (active)

Cn1cccc1Cc1nnc(SCC(=O)Nc2ccc(F)cc2)n1-c1ccc(F)cc1
EC50 [7]: 2.17 µM (active)

O=c1[nH]c2cc3c(cc2cc1CN(CCCO)Cc1nnnn1Cc1ccc(F)cc1)OCO3
IC50 [1]: > 66 µM (inactive) | AC50 [8]: 11.2 µM (inconclusive) | IC50 [2]: > 66 µM (inactive) | AC50 [9]: 12.6 µM (inconclusive)

C[C@@H]1CN([C@@H](C)CO)C(=O)c2cccc(NC(=O)C3CCCCC3)c2O[C@H]1CN(C)Cc1ccc(Oc2ccccc2)cc1
AC50 [3]: 1.71 µM (active)

[O-][S+](Cc1cc(Oc2ccccc2)nc(-c2ccccc2)n1)c1ccccc1 (stereo not given)
AC50 [8]: 3.98 µM (inconclusive) | EC50 [7]: 7.24 µM (active) | AC50 [10]: 28.2 µM (inconclusive) | AC50 [9]: 1.26 µM (inconclusive)

COc1cccc(/C=C2\SC(=S)N(c3cccnc3)C2=O)c1OC
IC50 [1]: > 66 µM (inactive) | IC50 [2]: > 66 µM (inactive)

Cc1ccc(-c2noc(CN(C(=O)CCCCCN3C(=O)c4ccccc4C3=O)C(C)C)n2)cc1
EC50 [7]: 7.53 µM (active) | IC50 [11]: 5.93 µM (not active)

Cn1cccc1Cc1nnc(SCC(=O)Nc2cccc(F)c2)n1-c1ccc(F)cc1
EC50 [7]: 3.35 µM (active)

C[C@H](CO)N1C[C@H](C)[C@H](CN(C)Cc2ccc(Cl)c(Cl)c2)Oc2ccc(NC(=O)Nc3ccc4c(c3)OCO4)cc2CC1=O
AC50 [3]: 6.16 µM (active)

CCS(=O)(=O)n1nc(NCc2cccc(OC)c2)nc1NCc1cccc(OC)c1
EC50 [7]: 8.18 µM (active)

C[C@@H]1CN([C@H](C)CO)C(=O)Cc2cc(NC(=O)Nc3ccc(C(F)(F)F)cc3)ccc2O[C@@H]1CN(C)Cc1ccccc1
AC50 [3]: 1.94 µM (active)

C[C@@H]1CN([C@@H](C)CO)C(=O)c2cc(NS(=O)(=O)c3ccc(F)cc3)ccc2O[C@H]1CN(C)Cc1ccc(-c2ccccc2)cc1
AC50 [12]: 45.7 µM (active) | AC50 [13]: 20.9 µM (active)

O=C(NC12CC3CC(CC(C3)C1)C2)c1cnccn1
IC50 [1]: 38.7 µM (inactive) | IC50 [2]: 43.3 µM (inactive)

Cc1noc(C)c1NC(=O)Nc1cccc2c1O[C@H](CN(C)Cc1ccc(C(=O)Nc3ccccc3N)cc1)[C@@H](C)CN([C@@H](C)CO)C2=O
AC50 [3]: 3.76 µM (active)

Cc1cc(C)c(S(=O)(=O)Nc2ccc(N(C)C)cc2)c(C)c1-n1cnnn1
IC50 [14]: 41.6 µM (active) | EC50 [15]: > 195 µM (not active) | AC50 [16]: 0.197 µM (active)

CC1CN(C(=O)N2c3ccccc3Sc3ccccc32)C(C)CC1=O (stereo not given)
EC50 [7]: 8.31 µM (active)

Cc1ccc(S(=O)(=O)Nc2ccc3c(c2)CC(=O)N([C@H](C)CO)C[C@@H](C)[C@H](CN(C)Cc2ccc(Cl)c(Cl)c2)O3)cc1
AC50 [3]: 2.04 µM (active)

O=C(N/N=C/c1cc(I)cc(I)c1O)c1ccccc1O
AC50 [3]: 3.17 µM (active)

CCCC(=O)N1CCCC(c2cc(C(=O)Nc3ccccc3)no2)C1 (stereo not given)
AC50 [12]: 1.89 µM (active) | AC50 [13]: 2.37 µM (active)

CN1Cc2c(N3CCOCC3)nc(SCc3ccccc3)c(C#N)c2CC1(C)C
IC50 [1]: > 66 µM (inactive) | EC50 [17]: 0.62 µM (active) | EC50 [18]: > 53 µM (inactive) | IC50 [2]: > 66 µM (inactive) | EC50 [19]: > 60 µM (not active)
